Reference: patent publication US12371454B2, “Cyclic peptide compound having Kras inhibitory action” (priority 2019, dated 2025)
pIC50: −log10 of the molar value. Starred links: 1 amine or outer side, 2 acyl side, 3 side chain; linkers in the order of their positions; H or OH if unused. Positions of bridges follow the written chain, without caps; N, C: chain ends. Non-standard residues stand in square brackets, D forms with d. Residues, ends and D or L forms follow the SMILES beside them. *: point of attachment. hPhe(3-Cl-4-CF3) = N[C@@H](CCc1ccc(C(F)(F)F)c(Cl)c1)C(=O)O; hPhe(3-F,4-CF3) = N[C@@H](CCc1ccc(C(F)(F)F)c(F)c1)C(=O)O; hPhe(3,4-Cl2) = N[C@@H](CCc1ccc(Cl)c(Cl)c1)C(=O)O; NMePhe(4-Me) = CN[C@@H](Cc1ccc(C)cc1)C(=O)O; NMePhe(4-F) = CN[C@@H](Cc1ccc(F)cc1)C(=O)O; NMedβ3hAla = C[C@H](CC(=O)[*:2])N(C)[*:1]; NMeCha = CN[C@@H](CC1CCCCC1)C(=O)O; NEtLeu = CCN[C@@H](CC(C)C)C(=O)O; NMeChg = CN[C@H](C(=O)O)C1CCCCC1; NMeD = CN[C@@H](CC(=O)O)C(=O)O; NMeL = CN[C@@H](CC(C)C)C(=O)O; NMeV = CN[C@H](C(=O)O)C(C)C; d(β3hA) = C[C@@H](N)CC(=O)O; NMeS = CN[C@@H](CO)C(=O)O; Morpholide = C1CN(*)CCO1; NMeA = CN[C@@H](C)C(=O)O; Piperidide = C1CCN(*)CC1; Ac5c = NC1(C(=O)O)CCCC1; Aze = O=C(O)[C@@H]1CCN1; CH2CMe2OH = CC(C)(O)C*; Sar = CNCC(=O)O

Experiments:
[1] = system: Human pancreatic cancer cell line AsPC-1; test: Measurement of AsPC-1 cell growth inhibition (AsPC-1 CGI); format: cell-based; conditions: 96 h
How it was run: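 AsPC-1 cells in 15% FBS RPMI-1640 were exposed to test compound for 96 hours at 37° C, with CellTiter-Glo as endpoint.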

[2] = biological target: T1, Kras and SOS1 (biotin-tagged human Kras loaded with GDP, His-tagged human SOS1) (Homo sapiens, UniProt P01116, G12D); test: Protein-protein interaction inhibition between Kras and SOS1 (KrasGl2D-SOS PPI) using AlphaScreen; format: binding; conditions: AlphaScreen; biotin-tagged human Kras loaded with GDP, His-tagged human SOS1; read-out: KRAS G12D-SOS PPI IC50
T1 construct: made in house; host or cells: E. coli (stated for Kras only)
How it was run: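 Energy transfer from nickel-chelate donor beads bound to His-SOS1 to streptavidin acceptor beads bound to biotin-Kras, expressed in E. coli and loaded with GDP after purification, was monitored. Donors were excited at 680 nm; singlet oxygen reaching acceptors gave emission read at 520-620 nm.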

T1 sequence (P01116 1-188 isoform P01116-2 G12D): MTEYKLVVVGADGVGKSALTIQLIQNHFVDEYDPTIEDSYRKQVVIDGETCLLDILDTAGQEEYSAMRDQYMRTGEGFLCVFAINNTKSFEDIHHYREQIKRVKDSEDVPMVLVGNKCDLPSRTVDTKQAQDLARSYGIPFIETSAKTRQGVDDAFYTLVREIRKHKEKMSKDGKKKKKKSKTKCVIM

`CC[C@H](C)[C@@H]1NC(=O)[C@H](CC(C)C)N(C)C(=O)C[C@@H](C)N(C)C(=O)[C@H](C2CCCCC2)N(C)C(=O)C2(CCCC2)NC(=O)[C@@H]2CCCN2C(=O)[C@H](CCc2ccc(C(F)(F)F)c(Cl)c2)NC(=O)CN(C)C(=O)[C@H](Cc2ccc(C)cc2)N(C)C(=O)CN(C)C(=O)CN(C)C1=O` [Compound 1682] (cyclo([Ac5c][NMeChg][NMedβ3hAla][NMeL]I[Sar][Sar][NMePhe(4-Me)][Sar][hPhe(3-Cl-4-CF3)]P)) was tested, and the pIC50 [1] was 6.30 to 7.00 and the pIC50 [2] was 8.62.

For `CC[C@H](C)[C@@H]1NC(=O)[C@H](CC(C)C)N(C)C(=O)C[C@@H](C)NC(=O)[C@H](C(C)C)N(C)C(=O)C2(CCCC2)NC(=O)[C@@H]2CCCN2C(=O)[C@H](CCc2ccc(C(F)(F)F)c(Cl)c2)NC(=O)CN(C)C(=O)[C@H](Cc2ccc(F)cc2)N(C)C(=O)CN(C)C(=O)CN(C)C1=O` [Compound 1602] (cyclo([Ac5c][NMeV][d(β3hA)][NMeL]I[Sar][Sar][NMePhe(4-F)][Sar][hPhe(3-Cl-4-CF3)]P)), the pIC50 [1] was 6.30 to 7.00 and the pIC50 [2] was 8.20.

`CC[C@H](C)[C@@H]1NC(=O)[C@H](CC(C)C)N(C)C(=O)C[C@@H](C)N(C)C(=O)[C@H](C2CCCCC2)N(C)C(=O)C2(CCCC2)NC(=O)[C@@H]2CCCN2C(=O)[C@H](CCc2ccc(C(F)(F)F)c(Cl)c2)NC(=O)CN(C)C(=O)[C@H](Cc2ccc(C)cc2)N(C)C(=O)[C@@H]2CCN2C(=O)[C@H](C)N(C)C1=O` [Compound 1673] (cyclo([Ac5c][NMeChg][NMedβ3hAla][NMeL]I[NMeA][Aze][NMePhe(4-Me)][Sar][hPhe(3-Cl-4-CF3)]P)) showed a pIC50 [1] of 6.30 to 7.00 and a pIC50 [2] of 8.27.

`CC[C@H](C)[C@@H]1NC(=O)[C@H](C)N(C)C(=O)C[C@@H](C(=O)N2CCCCC2)N(C)C(=O)[C@H](C2CCCCC2)N(C)C(=O)C2(CCCC2)NC(=O)[C@@H]2CCCN2C(=O)[C@H](CCc2ccc(Cl)c(Cl)c2)NC(=O)CN(C)C(=O)[C@H](CC2CCCCC2)N(C)C(=O)CN(C)C(=O)CN(C)C1=O` [Compound 825] ([NMeA]I[Sar][Sar][NMeCha][Sar][hPhe(3,4-Cl2)]P[Ac5c][NMeChg][NMeD]-Piperidide; lactam N-11) gave a pIC50 [1] of 7.00 to 7.30 and a pIC50 [2] of 9.46.

Compound `CC[C@H](C)[C@@H]1NC(=O)[C@H](CC(C)C)N(C)C(=O)C[C@@H](C(=O)N2CCCCC2)N(C)C(=O)[C@H](CC(C)C)N(C)C(=O)C2(CCCC2)NC(=O)[C@@H]2CCCN2C(=O)[C@H](CCc2ccc(C(F)(F)F)c(F)c2)NC(=O)CN(C)C(=O)[C@H](CC2CCCCC2)N(C)C(=O)CN(C)C(=O)CN(C)C1=O` [Compound 1501] ([NMeL]I[Sar][Sar][NMeCha][Sar][hPhe(3-F,4-CF3)]P[Ac5c][NMeL][NMeD]-Piperidide; lactam N-11) has a pIC50 [1] of 6.30 to 7.00 and a pIC50 [2] of 7.85.

Work on `CC[C@H](C)[C@@H]1NC(=O)[C@H](CC(C)C)N(CC)C(=O)C[C@@H](C(=O)N2CCCCC2)N(C)C(=O)[C@H](C2CCCCC2)N(C)C(=O)C2(CCCC2)NC(=O)[C@@H]2CCCN2C(=O)[C@H](CCc2ccc(C(F)(F)F)c(Cl)c2)NC(=O)CN(C)C(=O)[C@H](CC2CCCCC2)N(C)C(=O)CN(C)C(=O)CN(C)C1=O` [Compound 137] ([NEtLeu]I[Sar][Sar][NMeCha][Sar][hPhe(3-Cl-4-CF3)]P[Ac5c][NMeChg][NMeD]-Piperidide; lactam N-11) yielded a pIC50 [1] of 7.00 to 7.30 and a pIC50 [2] of 9.12.

Work on `CC[C@H](C)[C@@H]1NC(=O)[C@H](CC(C)C)N(C)C(=O)C[C@@H](C(=O)N2CCCCC2)N(C)C(=O)[C@H](C2CCCCC2)N(C)C(=O)C2(CCCC2)NC(=O)[C@@H]2CCCN2C(=O)[C@H](CCc2ccc(C(F)(F)F)c(Cl)c2)NC(=O)CN(C)C(=O)[C@H](CC(C)C)N(C)C(=O)CN(C)C(=O)CN(C)C1=O` [Compound 1652] ([NMeL]I[Sar][Sar][NMeL][Sar][hPhe(3-Cl-4-CF3)]P[Ac5c][NMeChg][NMeD]-Piperidide; lactam N-11) yielded a pIC50 [1] of 6.30 to 7.00 and a pIC50 [2] of 8.51.

Work on `CC[C@H](C)[C@@H]1NC(=O)[C@H](CC(C)C)N(C)C(=O)C[C@@H](C(=O)N2CCCCC2)N(C)C(=O)[C@H](C(C)C)N(C)C(=O)C2(CCCC2)NC(=O)[C@@H]2CCCN2C(=O)[C@H](CCc2ccc(C(F)(F)F)c(Cl)c2)NC(=O)CN(C)C(=O)[C@H](CC2CCCCC2)N(C)C(=O)[C@@H]2CCN2C(=O)[C@H](COCC(C)(C)O)N(C)C1=O` [Compound 86] ([NMeL]I[NMeS](CH2CMe2OH)[Aze][NMeCha][Sar][hPhe(3-Cl-4-CF3)]P[Ac5c][NMeV][NMeD]-Piperidide; lactam N-11) yielded a pIC50 [1] of 6.30 to 7.00 and a pIC50 [2] of 8.05.

In the case of `CC[C@H](C)[C@@H]1NC(=O)[C@H](CC(C)C)N(C)C(=O)C[C@@H](C(=O)N2CCOCC2)N(C)C(=O)[C@H](C2CCCCC2)N(C)C(=O)C2(CCCC2)NC(=O)[C@@H]2CCCN2C(=O)[C@H](CCc2ccc(C(F)(F)F)c(F)c2)NC(=O)CN(C)C(=O)[C@H](CC2CCCCC2)N(C)C(=O)CN(C)C(=O)CN(C)C1=O` [Compound 1965] ([NMeL]I[Sar][Sar][NMeCha][Sar][hPhe(3-F,4-CF3)]P[Ac5c][NMeChg][NMeD]-Morpholide; lactam N-11), the pIC50 [1] was 7.00 to 7.30 and the pIC50 [2] was 9.26.
